In the supplement of paper PMC10307832 one finds relative viability data, which are given here for five molecules.

The first assay has as its system NCI-H1437. The assay is described as follows: relative viability (nuclei count vs DMSO), 5 days (fraction); higher = more cells survive. The note with it: first compound 20 µM. The procedure, abridged:
(§1)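 Lung cancer cell lines in 1536-well plates were dosed by pin tool the day after seeding, either with one drug alone or with a fixed anchor-drug dose plus five library-drug doses (not always all listed) in √10 steps. After 5 days, cells were fixed and their nuclei stained in one step (final 0.05% Triton X-100, 1% formaldehyde, 1 ug/ml Hoechst), then counted on 4× images. Relative viability is the nuclei count in treated wells divided by that in vehicle wells. Values are medians of duplicate plates.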
`COCC1(CO)C(=O)C2CCN1CC2` (configuration not stated) [PRIMA-1MET] + O=C(CCCCCCC(=O)Nc1ccccc1)NO [Vorinostat] (partner 1 µM) returned a relative viability of 0.776.

Molecule `COCC1(CO)C(=O)C2CCN1CC2` (configuration not stated) [PRIMA-1MET] + C[C@]1(O)C[C@@H](c2nc(-c3ccc4ccc(-c5ccccc5)nc4c3)c3c(N)nccn32)C1 [Linsitinib] (partner 1 µM) yielded a relative viability of 0.753.

The molecule `COCC1(CO)C(=O)C2CCN1CC2` (configuration not stated) [PRIMA-1MET] + Cc1cc(Nc2cc(N3CCN(C)CC3)nc(Sc3ccc(NC(=O)C4CC4)cc3)n2)n[nH]1 [Tozasertib] (partner 0.1 µM) showed a relative viability of 0.407.

The molecule `COCC1(CO)C(=O)C2CCN1CC2` (configuration not stated) [PRIMA-1MET] + Cc1nc(NC(=O)N2CCC[C@H]2C(N)=O)sc1-c1ccnc(C(C)(C)C(F)(F)F)c1 [Alpelisib] (partner 2 µM) registered a relative viability of 0.926.

Molecule `COCC1(CO)C(=O)C2CCN1CC2` (configuration not stated) [PRIMA-1MET] + C[C@@H](Oc1cc(-c2cnn(C3CCNCC3)c2)cnc1N)c1c(Cl)ccc(F)c1Cl [Crizotinib] (partner 1 µM) had a relative viability of 0.862.

Another assay relates to NCI-H441. The description is as above. The note with it: first compound 0.2 µM. The procedure, abridged: as §1
`COCC1(CO)C(=O)C2CCN1CC2` (configuration not stated) [PRIMA-1MET] + O=C(CCCCCCC(=O)Nc1ccccc1)NO [Vorinostat] (partner 1 µM) had a relative viability of 0.689.

`COCC1(CO)C(=O)C2CCN1CC2` (configuration not stated) [PRIMA-1MET] + C[C@]1(O)C[C@@H](c2nc(-c3ccc4ccc(-c5ccccc5)nc4c3)c3c(N)nccn32)C1 [Linsitinib] (partner 1 µM): the relative viability came to 0.556.

Molecule `COCC1(CO)C(=O)C2CCN1CC2` (configuration not stated) [PRIMA-1MET] + Cc1cc(Nc2cc(N3CCN(C)CC3)nc(Sc3ccc(NC(=O)C4CC4)cc3)n2)n[nH]1 [Tozasertib] (partner 0.1 µM) yielded a relative viability of 0.629.

As to `COCC1(CO)C(=O)C2CCN1CC2` (configuration not stated) [PRIMA-1MET] + Cc1nc(NC(=O)N2CCC[C@H]2C(N)=O)sc1-c1ccnc(C(C)(C)C(F)(F)F)c1 [Alpelisib] (partner 2 µM), the relative viability came to 0.648.

As to `COCC1(CO)C(=O)C2CCN1CC2` (configuration not stated) [PRIMA-1MET] + C[C@@H](Oc1cc(-c2cnn(C3CCNCC3)c2)cnc1N)c1c(Cl)ccc(F)c1Cl [Crizotinib] (partner 1 µM), the relative viability came out at 0.934.

The same assay, now with this note: first compound 0.6325 µM.
On to `COCC1(CO)C(=O)C2CCN1CC2` (configuration not stated) [PRIMA-1MET] + O=C(CCCCCCC(=O)Nc1ccccc1)NO [Vorinostat] (partner 1 µM), for which the relative viability amounted to 0.6.

The molecule `COCC1(CO)C(=O)C2CCN1CC2` (configuration not stated) [PRIMA-1MET] + C[C@]1(O)C[C@@H](c2nc(-c3ccc4ccc(-c5ccccc5)nc4c3)c3c(N)nccn32)C1 [Linsitinib] (partner 1 µM) showed a relative viability of 0.517.

Take `COCC1(CO)C(=O)C2CCN1CC2` (configuration not stated) [PRIMA-1MET] + Cc1cc(Nc2cc(N3CCN(C)CC3)nc(Sc3ccc(NC(=O)C4CC4)cc3)n2)n[nH]1 [Tozasertib] (partner 0.1 µM): the relative viability was 0.667.

`COCC1(CO)C(=O)C2CCN1CC2` (configuration not stated) [PRIMA-1MET] + Cc1nc(NC(=O)N2CCC[C@H]2C(N)=O)sc1-c1ccnc(C(C)(C)C(F)(F)F)c1 [Alpelisib] (partner 2 µM) registered a relative viability of 0.792.

As for `COCC1(CO)C(=O)C2CCN1CC2` (configuration not stated) [PRIMA-1MET] + C[C@@H](Oc1cc(-c2cnn(C3CCNCC3)c2)cnc1N)c1c(Cl)ccc(F)c1Cl [Crizotinib] (partner 1 µM), the relative viability is 0.78.

The assay is the same for the next values; noted with them: first compound 2 µM.
`COCC1(CO)C(=O)C2CCN1CC2` (configuration not stated) [PRIMA-1MET] + O=C(CCCCCCC(=O)Nc1ccccc1)NO [Vorinostat] (partner 1 µM): the relative viability came out at 0.887.

In the case of `COCC1(CO)C(=O)C2CCN1CC2` (configuration not stated) [PRIMA-1MET] + C[C@]1(O)C[C@@H](c2nc(-c3ccc4ccc(-c5ccccc5)nc4c3)c3c(N)nccn32)C1 [Linsitinib] (partner 1 µM), the relative viability is 0.458.

`COCC1(CO)C(=O)C2CCN1CC2` (configuration not stated) [PRIMA-1MET] + Cc1cc(Nc2cc(N3CCN(C)CC3)nc(Sc3ccc(NC(=O)C4CC4)cc3)n2)n[nH]1 [Tozasertib] (partner 0.1 µM) yielded a relative viability of 0.77.

`COCC1(CO)C(=O)C2CCN1CC2` (configuration not stated) [PRIMA-1MET] + Cc1nc(NC(=O)N2CCC[C@H]2C(N)=O)sc1-c1ccnc(C(C)(C)C(F)(F)F)c1 [Alpelisib] (partner 2 µM) registered a relative viability of 0.762.

In the case of `COCC1(CO)C(=O)C2CCN1CC2` (configuration not stated) [PRIMA-1MET] + C[C@@H](Oc1cc(-c2cnn(C3CCNCC3)c2)cnc1N)c1c(Cl)ccc(F)c1Cl [Crizotinib] (partner 1 µM), the relative viability is 0.646.

Still in this assay, the particulars now being: first compound 6.325 µM.
Turning to `COCC1(CO)C(=O)C2CCN1CC2` (configuration not stated) [PRIMA-1MET] + O=C(CCCCCCC(=O)Nc1ccccc1)NO [Vorinostat] (partner 1 µM), the relative viability was found to be 0.96.

Turning to `COCC1(CO)C(=O)C2CCN1CC2` (configuration not stated) [PRIMA-1MET] + C[C@]1(O)C[C@@H](c2nc(-c3ccc4ccc(-c5ccccc5)nc4c3)c3c(N)nccn32)C1 [Linsitinib] (partner 1 µM), the relative viability came out at 0.524.

Take `COCC1(CO)C(=O)C2CCN1CC2` (configuration not stated) [PRIMA-1MET] + Cc1cc(Nc2cc(N3CCN(C)CC3)nc(Sc3ccc(NC(=O)C4CC4)cc3)n2)n[nH]1 [Tozasertib] (partner 0.1 µM): the relative viability came out at 0.743.

Molecule `COCC1(CO)C(=O)C2CCN1CC2` (configuration not stated) [PRIMA-1MET] + Cc1nc(NC(=O)N2CCC[C@H]2C(N)=O)sc1-c1ccnc(C(C)(C)C(F)(F)F)c1 [Alpelisib] (partner 2 µM) showed a relative viability of 0.816.

Turning to `COCC1(CO)C(=O)C2CCN1CC2` (configuration not stated) [PRIMA-1MET] + C[C@@H](Oc1cc(-c2cnn(C3CCNCC3)c2)cnc1N)c1c(Cl)ccc(F)c1Cl [Crizotinib] (partner 1 µM), the relative viability amounted to 0.663.

Staying with this assay, now noted: first compound 20 µM.
The molecule `COCC1(CO)C(=O)C2CCN1CC2` (configuration not stated) [PRIMA-1MET] + O=C(CCCCCCC(=O)Nc1ccccc1)NO [Vorinostat] (partner 1 µM) yielded a relative viability of 0.553.

With `COCC1(CO)C(=O)C2CCN1CC2` (configuration not stated) [PRIMA-1MET] + C[C@]1(O)C[C@@H](c2nc(-c3ccc4ccc(-c5ccccc5)nc4c3)c3c(N)nccn32)C1 [Linsitinib] (partner 1 µM), the relative viability was 0.24.

In turn, `COCC1(CO)C(=O)C2CCN1CC2` (configuration not stated) [PRIMA-1MET] + Cc1cc(Nc2cc(N3CCN(C)CC3)nc(Sc3ccc(NC(=O)C4CC4)cc3)n2)n[nH]1 [Tozasertib] (partner 0.1 µM) displayed a relative viability of 0.309.

The molecule `COCC1(CO)C(=O)C2CCN1CC2` (configuration not stated) [PRIMA-1MET] + Cc1nc(NC(=O)N2CCC[C@H]2C(N)=O)sc1-c1ccnc(C(C)(C)C(F)(F)F)c1 [Alpelisib] (partner 2 µM) gave a relative viability of 0.118.

In the case of `COCC1(CO)C(=O)C2CCN1CC2` (configuration not stated) [PRIMA-1MET] + C[C@@H](Oc1cc(-c2cnn(C3CCNCC3)c2)cnc1N)c1c(Cl)ccc(F)c1Cl [Crizotinib] (partner 1 µM), the relative viability amounted to 0.362.

The test system of the next assay is NCI-H23. Described as above. The settings on record: first compound 0.2 µM. The procedure, abridged:
as §1
With `COCC1(CO)C(=O)C2CCN1CC2` (configuration not stated) [PRIMA-1MET] + O=C(CCCCCCC(=O)Nc1ccccc1)NO [Vorinostat] (partner 1 µM), the relative viability turned out to be 0.72.

`COCC1(CO)C(=O)C2CCN1CC2` (configuration not stated) [PRIMA-1MET] + C[C@]1(O)C[C@@H](c2nc(-c3ccc4ccc(-c5ccccc5)nc4c3)c3c(N)nccn32)C1 [Linsitinib] (partner 1 µM): the relative viability is 0.692.
